Data: ChEMBL document CHEMBL4616582, “Green recipes to quinoline: A review” (Eur J Med Chem, 2019)
pIC50: −log10 of the molar value. In brackets after ≈: the same amount, converted by molar mass.

What follows are compounds tested on Bacillus subtilis (assay: Antibacterial activity against Bacillus subtilis MTCC 121 after 24 hrs by agar well diffusion method). Conditions: MTCC 121, 24 h.
Format: functional

MIC [mg/L]	SMILES
8 (≈ 14.9 µM)	Cc1ccc(N2C(=O)C3(C4=C(Nc5ccc(Br)cc53)c3ccccc3C4=O)C3=C2CCCC3=O)cc1 (configuration not stated)
6.25 (≈ 18.9 µM)	O=C(O)c1cn(C2CC2)c2cc(N3CCNCC3)c(F)cc2c1=O [CIPROFLOXACIN]
8 (≈ 15.3 µM)	O=C1CCCC2=C1C1(C(=O)N2c2ccccc2)C2=C(Nc3ccc(Br)cc31)c1ccccc1C2=O (configuration not stated)
8 (≈ 15.8 µM)	CC1(C)CC(=O)C2=C(C1)N(c1ccco1)C(=O)C21C2=C(Nc3ccc([N+](=O)[O-])cc31)c1ccccc1C2=O (configuration not stated)
8 (≈ 15.9 µM)	Cc1ccc(N2C(=O)C3(C4=C(Nc5ccc([N+](=O)[O-])cc53)c3ccccc3C4=O)C3=C2CCCC3=O)cc1 (configuration not stated)
8 (≈ 18 µM)	O=C1CCCC2=C1C1(C(=O)N2c2ccccc2)C2=C(Nc3ccccc31)c1ccccc1C2=O (configuration not stated)
8 (≈ 13.3 µM)	O=C1CCCC2=C1C1(C(=O)N2c2ccc(Br)cc2)C2=C(Nc3ccc(Br)cc31)c1ccccc1C2=O (configuration not stated)
8 (≈ 15.9 µM)	COc1ccc(N2C(=O)C3(C4=C(Nc5ccccc53)c3ccccc3C4=O)C3=C2CC(C)(C)CC3=O)cc1 (configuration not stated)
8 (≈ 14.5 µM)	CC1(C)CC(=O)C2=C(C1)N(c1ccccc1)C(=O)C21C2=C(Nc3ccc(Br)cc31)c1ccccc1C2=O (configuration not stated)
8 (≈ 16.3 µM)	O=C1CCCC2=C1C1(C(=O)N2c2ccccc2)C2=C(Nc3ccc([N+](=O)[O-])cc31)c1ccccc1C2=O (configuration not stated)
8 (≈ 15.1 µM)	O=C1CCCC2=C1C1(C(=O)N2C2CCCCC2)C2=C(Nc3ccc(Br)cc31)c1ccccc1C2=O (configuration not stated)
8 (≈ 16.4 µM)	Cc1ccc(N2C(=O)C3(C4=C(Nc5ccccc53)c3ccccc3C4=O)C3=C2CC(C)(C)CC3=O)cc1 (configuration not stated)
8 (≈ 16.9 µM)	CC1(C)CC(=O)C2=C(C1)N(c1ccccc1)C(=O)C21C2=C(Nc3ccccc31)c1ccccc1C2=O (configuration not stated)
8 (≈ 15.5 µM)	CC1(C)CC(=O)C2=C(C1)N(c1ccccc1)C(=O)C21C2=C(Nc3ccc([N+](=O)[O-])cc31)c1ccccc1C2=O (configuration not stated)
8 (≈ 16.7 µM)	O=C1CCCC2=C1C1(C(=O)N2c2ccc(Cl)cc2)C2=C(Nc3ccccc31)c1ccccc1C2=O (configuration not stated)
8 (≈ 14.5 µM)	CC1(C)CC(=O)C2=C(C1)N(c1ccc(Br)cc1)C(=O)C21C2=C(Nc3ccccc31)c1ccccc1C2=O (configuration not stated)
8 (≈ 15.8 µM)	CC1(C)CC(=O)C2=C(C1)N(c1ccc(Cl)cc1)C(=O)C21C2=C(Nc3ccccc31)c1ccccc1C2=O (configuration not stated)
8 (≈ 14.1 µM)	O=C1CCCC2=C1C1(C(=O)N2c2ccc(Br)cc2)C2=C(Nc3ccc([N+](=O)[O-])cc31)c1ccccc1C2=O (configuration not stated)
8 (≈ 14.5 µM)	COc1ccc(N2C(=O)C3(C4=C(Nc5ccc(Br)cc53)c3ccccc3C4=O)C3=C2CCCC3=O)cc1 (configuration not stated)
8 (≈ 14.8 µM)	CC1(C)CC(=O)C2=C(C1)N(c1ccco1)C(=O)C21C2=C(Nc3ccc(Br)cc31)c1ccccc1C2=O (configuration not stated)
8 (≈ 15.1 µM)	CCCCN1C(=O)C2(C3=C(Nc4ccc(Br)cc42)c2ccccc2C3=O)C2=C1CC(C)(C)CC2=O (configuration not stated)
8 (≈ 15.3 µM)	O=C1CCCC2=C1C1(C(=O)N2c2ccc(Cl)cc2)C2=C(Nc3ccc([N+](=O)[O-])cc31)c1ccccc1C2=O (configuration not stated)
8 (≈ 14.5 µM)	CC1(C)CC(=O)C2=C(C1)N(c1ccc(Cl)cc1)C(=O)C21C2=C(Nc3ccc([N+](=O)[O-])cc31)c1ccccc1C2=O (configuration not stated)

These compounds were tested on Plasmodium falciparum (assay: Antimalarial activity against chloroquine and quinine sensitive Plasmodium falciparum). Conditions: not given.
Format: functional, organism-based

IC50 [mg/L]	SMILES
0.042 to 0.09 (≈ 0.0643 to 0.138 µM)	Cc1nn(-c2ccccc2)c(Oc2ccccc2F)c1C1C(C#N)=C(N)N(Nc2ccc(Br)cc2)C2=C1C(=O)CC(C)(C)C2 (configuration not stated)
0.042 to 0.09 (≈ 0.0695 to 0.149 µM)	COc1ccc(NN2C(N)=C(C#N)C(c3c(C)nn(-c4ccccc4)c3Oc3cccc(F)c3)C3=C2CC(C)(C)CC3=O)cc1 (configuration not stated)
0.042 to 0.09 (≈ 0.0709 to 0.152 µM)	Cc1nn(-c2ccccc2)c(Oc2ccc(F)cc2)c1C1C(C#N)=C(N)N(Nc2ccc(F)cc2)C2=C1C(=O)CC(C)(C)C2 (configuration not stated)
0.042 to 0.09 (≈ 0.0654 to 0.14 µM)	Cc1nn(-c2ccccc2)c(Oc2cccc(C(F)(F)F)c2)c1C1C(C#N)=C(N)N(Nc2ccc(F)cc2)C2=C1C(=O)CC(C)(C)C2 (configuration not stated)
0.042 to 0.09 (≈ 0.0731 to 0.157 µM)	Cc1nn(-c2ccccc2)c(Oc2cccc(F)c2)c1C1C(C#N)=C(N)N(Nc2ccccc2)C2=C1C(=O)CC(C)(C)C2 (configuration not stated)
0.042 to 0.09 (≈ 0.0597 to 0.128 µM)	Cc1nn(-c2ccccc2)c(Oc2cccc(C(F)(F)F)c2)c1C1C(C#N)=C(N)N(Nc2ccc(Br)cc2)C2=C1C(=O)CC(C)(C)C2 (configuration not stated)
0.042 to 0.09 (≈ 0.0731 to 0.157 µM)	Cc1nn(-c2ccccc2)c(Oc2ccc(F)cc2)c1C1C(C#N)=C(N)N(Nc2ccccc2)C2=C1C(=O)CC(C)(C)C2 (configuration not stated)
0.042 to 0.09 (≈ 0.0642 to 0.137 µM)	COc1ccc(NN2C(N)=C(C#N)C(c3c(C)nn(-c4ccccc4)c3Oc3cccc(C(F)(F)F)c3)C3=C2CC(C)(C)CC3=O)cc1 (configuration not stated)
0.042 to 0.09 (≈ 0.0731 to 0.157 µM)	Cc1nn(-c2ccccc2)c(Oc2ccccc2F)c1C1C(C#N)=C(N)N(Nc2ccccc2)C2=C1C(=O)CC(C)(C)C2 (configuration not stated)
0.042 to 0.09 (≈ 0.0672 to 0.144 µM)	Cc1nn(-c2ccccc2)c(Oc2cccc(C(F)(F)F)c2)c1C1C(C#N)=C(N)N(Nc2ccccc2)C2=C1C(=O)CC(C)(C)C2 (configuration not stated)
0.042 to 0.09 (≈ 0.0643 to 0.138 µM)	Cc1nn(-c2ccccc2)c(Oc2ccc(F)cc2)c1C1C(C#N)=C(N)N(Nc2ccc(Br)cc2)C2=C1C(=O)CC(C)(C)C2 (configuration not stated)
0.042 to 0.09 (≈ 0.069 to 0.148 µM)	Cc1nn(-c2ccccc2)c(Oc2ccccc2F)c1C1C(C#N)=C(N)N(Nc2ccc(Cl)cc2)C2=C1C(=O)CC(C)(C)C2 (configuration not stated)
0.042 to 0.09 (≈ 0.0643 to 0.138 µM)	Cc1nn(-c2ccccc2)c(Oc2cccc(F)c2)c1C1C(C#N)=C(N)N(Nc2ccc(Br)cc2)C2=C1C(=O)CC(C)(C)C2 (configuration not stated)
0.042 to 0.09 (≈ 0.0709 to 0.152 µM)	Cc1nn(-c2ccccc2)c(Oc2ccccc2F)c1C1C(C#N)=C(N)N(Nc2ccc(F)cc2)C2=C1C(=O)CC(C)(C)C2 (configuration not stated)
0.042 to 0.09 (≈ 0.0709 to 0.152 µM)	Cc1nn(-c2ccccc2)c(Oc2cccc(F)c2)c1C1C(C#N)=C(N)N(Nc2ccc(F)cc2)C2=C1C(=O)CC(C)(C)C2 (configuration not stated)

SMILES	IC50 [mg/L]
C=C[C@H]1CN2CC[C@H]1C[C@H]2[C@H](O)c1ccnc2ccc(OC)cc12 [QUININE]	0.268 (≈ 0.826 µM)

What follows are compounds tested on HepG2 (assay: Cytotoxicity against human HepG2 cells assessed as reduction in cell viability by MTT assay). Conditions: not given.
Format: functional, cell-based

SMILES	pIC50
O=c1c2cc(Cl)c(Cl)cc2n(-c2ccccc2)c2ss/c(=N\c3ccccc3)c12	6.01
CC(=O)c1ccc(Cl)cc1	6.01
O=c1c2ccc(Cl)cc2n(-c2ccccc2)c2ss/c(=N\c3ccccc3)c12	6.01
O=c1c2ccc(Br)cc2n(-c2ccccc2)c2ss/c(=N\c3ccccc3)c12	6.01
CC(=O)c1ccc(Cl)c(Cl)c1	6.01
Cc1ccc(Br)c2c(=O)c3/c(=N/c4ccccc4)ssc3n(-c3ccccc3)c12	6.01
CC(=O)c1cc(F)c(Cl)cc1Cl	6.01
CC(=O)c1ccc(F)cc1	6.01
O=c1c2ccc(F)cc2n(-c2ccccc2)c2ss/c(=N\c3ccccc3)c12	6.01
O=c1c2c(Cl)cc(Cl)c(F)c2n(-c2ccccc2)c2ss/c(=N\c3ccccc3)c12	6.01
O=c1c2c(Cl)ccc(Cl)c2n(-c2ccccc2)c2ss/c(=N\c3ccccc3)c12	6.01
S=C=Nc1ccccc1 [PHENYLISOTHIOCYANATE]	6.01
CC(=O)c1ccccc1Cl	6.01
CC(=O)c1cc(Cl)ccc1Cl	6.01
CC(=O)c1ccc(Br)cc1	6.01
CC(C)=CCC[C@]1(C)C=Cc2c(O)c3c(c(CC=C(C)C)c2O1)O[C@]12C(=C[C@@H]4C[C@H]1C(C)(C)O[C@@]2(C/C=C(/C)C(=O)O)C4=O)C3=O [GAMBOGIC ACID]	5.81
O=c1c2c(Cl)cccc2n(-c2ccccc2)c2ss/c(=N\c3ccccc3)c12	6.01
CC(=O)c1ccccc1 [ACETOPHENONE]	6.01
CC(=O)c1cc(C)ccc1Br	6.01

The compounds below were run on B16-F10 (assay: Cytotoxicity against mouse B16F10 cells assessed as reduction in cell viability). Conditions: not given.
Format: functional, cell-based

SMILES	pIC50
O=c1oc2ccccc2c2nc3c(ccc4cc[nH]c43)c(-c3c(Cl)cccc3Cl)c12	4.15
O=Cc1c(Cl)cccc1Cl	4.15
O=c1oc2ccccc2c2nc3c(ccc4cc[nH]c43)c(-c3cccc4ccccc34)c12	4.15
O=Cc1ccccn1 [2-PYRIDINECARBOXALDEHYDE]	4.15
O=c1oc2ccccc2c2nc3c(ccc4cc[nH]c43)c(-c3ccc(O)cc3)c12	4.15
O=c1oc2ccccc2c2nc3c(ccc4cc[nH]c43)c(-c3cccc(Cl)c3Cl)c12	4.15
O=c1cc(O)c2cc(F)ccc2o1	4.15
O=Cc1ccc(F)cc1	4.15
O=c1oc2ccccc2c2nc3c(ccc4cc[nH]c43)c(-c3ccc(C(F)(F)F)cc3)c12	4.15
O=Cc1ccc([N+](=O)[O-])cc1	4.15
O=Cc1ccc(Br)cc1	4.15
O=c1oc2ccccc2c2nc3c(ccc4cc[nH]c43)c(-c3ccc(Cl)cc3Cl)c12	4.15
O=Cc1cccc(Br)c1	4.15
O=Cc1ccc(Cl)cc1	4.15
O=c1oc2ccccc2c2nc3c(ccc4cc[nH]c43)c(-c3ccc(Cl)cc3)c12	4.15
O=Cc1cccc2ccccc12	4.15
O=Cc1cccc(Cl)c1Cl	4.15
O=c1oc2ccccc2c2nc3c(ccc4cc[nH]c43)c(-c3cccnc3Cl)c12	4.15
O=c1oc2ccccc2c2nc3c(ccc4cc[nH]c43)c(-c3ccc(F)cc3)c12	4.15
Cc1ccc(C=O)cc1	4.15

SMILES	pIC50
O=c1oc2ccccc2c2nc3c(ccc4cc[nH]c43)c(-c3ccc(Br)cc3)c12	4.15
O=c1oc2ccccc2c2nc3c(ccc4cc[nH]c43)c(-c3ccccc3)c12	4.15
O=c1oc2ccccc2c2nc3c(ccc4cc[nH]c43)c(-c3ccc([N+](=O)[O-])cc3)c12	4.15
COc1ccc(C=O)cc1 [ANISALDEHYDE]	4.15
O=c1oc2ccccc2c2nc3c(ccc4cc[nH]c43)c(-c3cccc(Br)c3)c12	4.15
Nc1cccc2cc[nH]c12	4.15
O=Cc1ccc(C(F)(F)F)cc1	4.15
O=c1cc(O)c2cc(Br)ccc2o1	4.15
O=c1cc(O)c2cc(Cl)ccc2o1	4.15
O=Cc1ccc(O)cc1 [4-HYDROXYBENZALDEHYDE]	4.15
Cc1ccc(-c2c3ccc4cc[nH]c4c3nc3c2c(=O)oc2ccccc23)cc1	4.15
O=Cc1ccc(Cl)cc1Cl	4.15
O=c1oc2ccccc2c2nc3c(ccc4cc[nH]c43)c(-c3ccccn3)c12	4.15
O=c1cc(O)c2ccccc2o1 [4-HYDROXYCOUMARINS]	4.15
O=Cc1cccnc1Cl [2-CHLORONICOTINALDEHYDE]	4.15
COc1ccc(-c2c3ccc4cc[nH]c4c3nc3c2c(=O)oc2ccccc23)cc1	4.15
O=Cc1ccccc1Br	4.15
O=c1oc2ccccc2c2nc3c(ccc4cc[nH]c43)c(-c3ccccc3Br)c12	4.15
O=Cc1ccccc1 [BENZALDEHYDE]	4.15
